Laboratory results taken from US8710021B2, “Inhibition of HRP-3 using modified oligonucleotides” (Bionucleon S.r.l., priority 2008, dated 2014).
“Also recorded” adds a separate entry of the source.

Experiments:
HRP-3 [1] = target: T1, HRP-3 (Homo sapiens, UniProt Q9Y3E1); experiment: 3T3 migration in vitro assay: prevention of HRP-3 function by DNA duplexes; format: cell-based, mouse
T1 construct: The HRP-3 coding region was cloned into the pET30 vector using EcoRI and NdeI as restriction sites; made in house; host or cells: E. coli BL21
T1 sequence (Q9Y3E1 whole entry): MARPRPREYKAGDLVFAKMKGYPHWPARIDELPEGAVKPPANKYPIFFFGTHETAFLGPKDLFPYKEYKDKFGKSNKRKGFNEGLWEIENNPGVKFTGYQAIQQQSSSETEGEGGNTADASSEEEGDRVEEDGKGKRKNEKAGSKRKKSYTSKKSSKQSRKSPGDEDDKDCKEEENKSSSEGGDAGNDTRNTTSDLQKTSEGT
Procedure: All the four DNA duplexes were tested in our 3T3 migration in vitro assay to see if they were able to prevent HRP-3 function by binding its PWWP domain (FIG. 13). […] The third column on the left is the negative control.

HRP-3 [2] = target: T1, HRP-3; experiment: HRP-3 induced sprouting of HUVEC blocked by single strand oligonucleotides; format: cell-based; settings: recombinant HRP-3 plus synthetic oligo
Text: We tried to twice block the protein effect of human endothelial cells sprouting with a modified single strand oligonucleotides. In samples with recombinant protein, and synthetic oligos, SEQ ID NO. 16, 17, and 18 the number of sprouted spheroids was reduced as compared to samples with recombinant protein (FIG. 19).

HUVEC cells [3] = experiment: HUVEC sprouting test; format: cell-based, human; settings: in presence of VEGF
Procedure: While no effects on the proliferation on BAEC and HUVEC cells were found, HRP-3 is able to induce HUVEC sprouting after 24 hours of stimulation. As shown in FIGS. 3 and 4 the HRP-3 can induce sprouting in HUVEC cells in a dose dependent manner. In FIG. 4 we have shown the negative control and the positive control with VEGF at 60 ng/ml. […] To be sure of ours results, experiments have been made in blind too.
Furthermore to confirm VEGF-independent angiogenic activity we performed another sprouting test with Avastin, anti-VEGF antibody in presence of VEGF and our protein.

HUVEC cells [4] = experiment: mRNA expression in HUVEC by Real Time PCR; format: cell-based, human; settings: HUVEC treated with 60 ng/ml VEGF, versus negative control
Text: To understand the molecular basis of this stimulation, we studied mRNA expression of HRP-3 in HUVEC cell line by Real Time PCR. […] To understand if VEGF or VEGFR-2 was involved with the HRP-3 induced mechanism, we stimulated HUVEC cells with our HRP-3 and investigated mRNA levels of VEGF, VEGFR-2, HRP-3 and HDGF. The expression of those genes is not changed by HRP-3, FIGS. 5 and 6.

[5] = Acute toxicity in vivo in CD-1 female mice; settings: 3, 10 and 30 mg/kg i.v. or i.p.
Procedure: We have evaluated in vivo the acute toxicity of BN210. 30 CD-1 female mice (Charles River Italia s.r.l., Via Indipendenza, 11-23885 CALCO (Lecco)), weighing 21.8-22.9 g, were divided in 6 groups, each of 5 animals, and housed in Makrolon cages (type III) at a room temperature of 22±3° C. and at a relative humidity of 55±15%. Air changes were 180-220/hour. Three doses of BN210, dissolved in phosphate buffered saline, were tested: 3, 10 and 30 mg/kg given intravenously (i.v., via the tail vain) or intraperitoneally (i.p.). BN210 concentrations in the formulates were 0.155, 0.517 and 1.551 mg/ml, respectively. Mice were observed daily, twice/day, for the appearance of toxicity signs during the 14 days following drug administration. The parameters commonly checked in the Irvin test were taken into consideration. […] After 14 days of observation, all mice were sacrificed and dissected for gross pathology examination. Any sign or pathological alterations were the subject of close scrutiny during the necropsy.

soluble HRP-3 = soluble HRP-3 (Homo sapiens, UniProt Q9Y3E1); experiment: In vitro anti-angiogenic activity (data not shown); format: cell-based
Chain of soluble HRP-3 (Q9Y3E1 whole entry): as above

GI-LI-N cells = settings: 250 nM BN210 with vincristine 0.15 to 5 nM; 48 h

| Substance | activity in abolishing the anti-migratory effect of HRP-3 on 3T3 cells (HRP-3 [1]) | number of sprouted HUVEC spheroids versus recombinant protein alone (HRP-3 [2]) | also measured |
| --- | --- | --- | --- |
| Duplex 3: derived DNA double strand designed to test different molecular shapes (chain 1 TACAACAAACCCACAAA; chain 2 TTTGTGGGTGTTGTA; chain 1: DNA, backbone and methylation of C not given here; chain 2: DNA, backbone not given here) | no activity |  |  |
| 5′-TAC AAC ACC CAC AAA-[CH2CH2O]5-TTT GTG GGT GTT GTA-[CH2CH2O]5H-3' (TACAACACCCACAAABTTTGTGGGTGTTGTAB; PEG5 spacers, chemistry not fully specified) [SEQ ID NO. 18] |  | reduced |  |
| Duplex 2: derived DNA double strand with base changes versus Duplex 1, to test importance of sequence for binding (chain 1 TACAACATTCACAAA; chain 2 TTTGTGAATGTTGTA; chain 1: DNA, backbone and methylation of C not given here; chain 2: DNA, backbone not given here) | modest activity |  |  |
| Duplex 4: derived DNA double strand with base changes versus Duplex 1, to test importance of sequence for binding (chain 1 CACACACACACACAC; chain 2 GTGTGTGTGTGTGTG; chain 1: DNA, backbone and methylation of C not given here; chain 2: DNA, backbone not given here) | no activity |  |  |
| Avastin: anti-VEGF antibody |  |  | effect on VEGF-mediated HUVEC sprouting (HUVEC cells [3]): blocks HUVEC sprouting VEGF-mediated |
| 5′-TACAACACCCACAAAAAATTTGTGGGTGTTGTA-3' (TACAACACCCACAAAAAATTTGTGGGTGTTGTA; DNA, backbone and methylation of C not given here) [SEQ ID NO. 16] |  | can block; also recorded: reduced |  |
| VEGF |  |  | HRP-3 mRNA levels after VEGF treatment (HUVEC cells [4]): no significant difference |
| 5′-PEG (40 KDa)-(NH)-T*AC AACACCCACAAAAAAUTTGTGGGTGTT GTiA-3' (BTACAACACCCACAAAAAAUTTGTGGGTGTTGTA; 5'-PEG 40 kDa amino linker, 3' inverted nucleotide, hairpin, further chemistry not given here) [BN210] |  |  | clinical or behavioural signs of toxicity ([5]; 14 days observation): no signs of clinical or behavioural alterations; gross pathology at necropsy ([5]; after 14 days): No macroscopic signs or pathological changes; anti-angiogenic activity in vitro (soluble HRP-3): anti-angiogenic activity; effect of addition on vincristine treatment (GI-LI-N cells): did not enhance or inhibit |
| 5′-UACAACACCCACAAAAAAUUUGUGGGUGUUGUA-3' (2'-OMe) (UACAACACCCACAAAAAAUUUGUGGGUGUUGUA; all 2'-O-methyl, backbone not given here) [SEQ ID NO. 17] |  | reduced |  |
